# Data reported in BindingDB's records for doi:10.1021/jm030921v (Uppsala University, 2004).
# Numbered stars: 1 amine (or outer) side, 2 acyl side, 3 side chain; on linkers, the order of the positions; unused ones are H or OH. Bridge positions count the residues as written; N and C are the ends. Peptide text beside a SMILES is read from it. CH2 = C([*:1])[*:2]
# Molecular target: Type-2 angiotensin II receptor (Sus scrofa)
# Assay: Binding affinity for Angiotensin II receptor type 2 using [125I]- Ang II in pig uterus myometrium
row,Ki [µM],SMILES
1,> 10,N=C(N)NCCC[C@H](NC(=O)[C@@H](N)CC(=O)O)C(=O)Nc1ccc2c(c1)CN(CC(=O)N[C@@H](Cc1cnc[nH]1)C(=O)N1CCC[C@H]1C(=O)N[C@@H](Cc1ccccc1)C(=O)O)C(=O)[C@H](Cc1ccc(O)cc1)N2 [Angiotensin II analogue]
2,0.00062,N=C(N)NCCC[C@H](NC(=O)[C@@H](N)CC(=O)O)C(=O)N[C@H]1CSCSC[C@@H](C(=O)N[C@@H](Cc2cnc[nH]2)C(=O)N2CCC[C@H]2C(=O)N[C@@H](Cc2ccccc2)C(=O)O)NC(=O)[C@H](Cc2ccc(O)cc2)NC1=O [Angiotensin II analogue] (H-DRCYCHPF-OH; linker 3-5 via CH2)
3,> 10,CC(C)[C@H](NC(=O)[C@H](C)NC(=O)[C@@H](N)CC(=O)O)C(=O)Nc1ccc2c(c1)CN(CC(=O)N[C@@H](Cc1cnc[nH]1)C(=O)N1CCC[C@H]1C(=O)N[C@@H](Cc1ccccc1)C(=O)O)C(=O)[C@H](Cc1ccc(O)cc1)N2 [Angiotensin II analogue]
4,> 10,CC(C)[C@H](NC(=O)[C@H](CCCNC(=N)N)NC(=O)[C@@H](N)CC(=O)O)C(=O)N[C@@H](Cc1ccc(O)cc1)C(=O)Nc1ccc2c(c1)CN(CC(=O)N[C@@H](Cc1ccccc1)C(=O)O)C(=O)[C@H](Cc1cnc[nH]1)N2 [Angiotensin II analogue]
